Data reported in ChEMBL document CHEMBL5120774, “Genome-Mining-Guided Discovery and Characterization of the PKS-NRPS-Hybrid Polyoxyperuin Produced by a Marine-Derived Streptomycete” (2022).
Converted amounts (≈) assume the structure as drawn.

Tests used:
Format in all cases: functional
[1] = test system: Staphylococcus aureus; experiment: Antibacterial activity against Staphylococcus aureus ATCC 25923 assessed as inhibition of bacterial growth incubated for 18 hrs by broth microdilution method
[2] = test system: Listeria monocytogenes; experiment: Antibacterial activity against Listeria monocytogenes DSM20600 assessed as inhibition of bacterial growth incubated for 48 hrs by BacTiter-Glo assay
[3] = test system: Mycolicibacterium smegmatis; experiment: Antibacterial activity against Mycobacterium smegmatis ATCC 607 assessed as inhibition of bacterial growth incubated for 48 hrs by BacTiter-Glo assay
[4] = test system: Micrococcus luteus; experiment: Antibacterial activity against Micrococcus luteus DSM20030 assessed as inhibition of bacterial growth incubated for 18 hrs by broth microdilution method
[5] = test system: Escherichia coli; experiment: Antibacterial activity against Escherichia coli ATCC 35218 assessed as inhibition of bacterial growth incubated for 18 hrs by broth microdilution method
[6] = test system: Bacillus subtilis; experiment: Antibacterial activity against Bacillus subtilis DSM10 assessed as inhibition of bacterial growth incubated for 18 hrs by broth microdilution method

Compound `CC[C@H]1OC(O)(C(C)(O)C(=O)N[C@@H]2C(=O)N3NCCC[C@@H]3C(=O)N(O)[C@@H](C)C(=O)N(C)[C@@H](CC(C)C)C(=O)N3NCCC[C@@H]3C(=O)N(O)CC(=O)OC2C(C)C)CC[C@@H]1C` (some centres not stated) has an MIC [1] of 0.125 µg/mL (≈ 0.146 µM), an MIC [2] of under 0.031 µg/mL and an MIC [3] of over 64 µg/mL. The MIC [4] was under 0.031 µg/mL, the MIC [5] was over 64 µg/mL and the MIC [6] was 0.125 µg/mL (≈ 0.146 µM).

With `CC[C@H]1OC(O)(C(C)(O)C(=O)N[C@H](C(=O)N2NCCC[C@@H]2C(=O)N(O)[C@@H](C)C(=O)N(C)[C@@H](CC(C)C)C(=O)N2NCCC[C@@H]2C(=O)N(O)CC(=O)O)C(O)C(C)C)CC[C@@H]1C` (some centres not stated) the MIC [1] was over 64 µg/mL, the MIC [2] was over 64 µg/mL and the MIC [3] was over 64 µg/mL. It also gave an MIC [4] of 32 µg/mL (≈ 36.7 µM), an MIC [5] of over 64 µg/mL and an MIC [6] of over 64 µg/mL.
